In patent US20250327032A1, “AGENT FOR AVOIDING IMMUNE RESPONSE OF TRANSGENIC CELLS” (HYPERION DRUG DISCOVERY CO., LTD., priority 2021, published 2025):

What was measured:
IFN-α = IFN-α expression level (qPCR) after introduction of GFP-tagged CAR-T plasmid; format: cell-based, human; conditions: Jurkat E6.1; JSH-23 0.1 μM; compared to CAR-T plasmid introduced without JSH-23
human myoblasts [1] = assay: Introduction of GFP viral vector (polybrene method), yield of GFP-positive cells; format: cell-based; conditions: JSH-23 0.1 μM; GFP viral vector MOI 10, polybrene 5 μg/mL
Description: Human mesenchymal stem cells were seeded in a 6-well plate to be about 2,000 cells/cm^2. Human myoblasts were seeded in another 6-well plate to be about 2,000 cells/cm^2. As a culture solution, a basal medium for each cell supplemented with JSH-23 was used. JSH-23 was added at 1 μM to the culture solution used for human mesenchymal stem cells, and at 0.1 μM to the culture solution used for human myoblasts. As a control, a basal medium, i.e., αMEM (+10% serum) for human mesenchymal stem cells and MCDB131 (+10% serum) for human myoblasts, to which 0.1% (v/v) DMSO instead of JSH-23 was added was used as a culture solution.
A mixed solution was prepared by mixing GFP viral vector and a polybrene solution. […]
Next, the above mixed solution was added to the plate seeded with human mesenchymal stem cells or human myoblasts, and cultured in a CO2 incubator at 37° C. for 24 hours.
Four days after the addition of the virus-free culture solution, the cells were detached with a cell detachment solution and centrifuged at 600×g for 5 minutes using a centrifuge, to collect the cells. The collected cells were counted using a hemocytometer. Furthermore, the GFP-positive percentage of the collected cells was measured using a flow cytometer. The yield of the number of GFP-positive cells was calculated from the number of cells counted and the GFP-positive percentage. […]

human myoblasts [2] = assay: Introduction of GFP mRNA by lipofection, yield of GFP-positive cells; format: cell-based; conditions: 5 pg/cell
Description: (§1) Human mesenchymal stem cells were seeded in a 6-well plate to be about 10,000 cells/cm^2. Human myoblasts were seeded in another 6-well plate to be about 20,000 cells/cm^2. As a culture solution, a basal medium for each cell supplemented with 0.1, 1, or 10 μM of JSH-23 was used. As a control, a basal medium for each cell supplemented with 0.1% (v/v) DMSO instead of JSH-23 was used as a culture solution.
(§2) A lipofection solution was prepared by adding Lipofectamine RNAiMAX and fluorescent protein GFP mRNA to OptiMEM. As the GFP mRNA, that containing uridine or that containing pseudouridine instead of uridine was used. In addition, for those containing pseudouridine, a basal medium for each cell supplemented with 1 μM of JSH-23 was used, and as a control, a basal medium for each cell supplemented with 0.1% (v/v) DMSO instead of JSH-23 was used as a culture solution. It was prepared so that the amount of mRNA was 10 pg/cell for human mesenchymal stem cells and 5 pg/cell for human myoblasts. The prepared lipofection solution was mixed well according to the manufacturer's recommended protocol and allowed to stand at room temperature for about 15 minutes.
(§3) Next, each lipofection solution was added to the plate seeded with human mesenchymal stem cells or human myoblasts, and cultured in a CO2 incubator at 37° C. for about 1 day (18 hours) (human mesenchymal stem cells) or for 2 days (42 hours) (human myoblasts). After culturing, all the culture solution comprising the lipofection solution was removed and replaced with a new culture solution having the same composition as before the addition of the lipofection solution.
(§4) After another 6 hours, the above lipofection solution was newly prepared, added again to the plate seeded with human mesenchymal stem cells or human myoblasts, and cultured in a CO2 incubator at 37° C. for about 1 day (18 hours) (mesenchymal stem cells) or about 2 days (42 hours) (human myoblasts). These steps were repeated so that the introduction of genes was performed a total of 4 times.
(§5) Twenty-four hours after the final introduction of genes, the cells were detached with a cell detachment solution, centrifuged at 600×g for 5 minutes using a centrifuge, to collect the cells. The collected cells were counted using a hemocytometer. Furthermore, the GFP-positive percentage of the collected cells was measured using a flow cytometer. The yield of the number of GFP-positive cells was calculated from the number of cells counted and the GFP-positive rate.
as §1, with “1” for “0.1, 1, or 10”, “calcitriol” for “JSH-23”
(§6) A lipofection solution was prepared by adding Lipofectamine RNAiMAX and fluorescent protein GFP mRNA to OptiMEM. As the GFP mRNA, that containing uridine, or that containing pseudouridine instead of uridine was used. It was prepared so that the amount of mRNA was 10 pg/cell for human mesenchymal stem cells and 5 pg/cell for human myoblasts. The prepared lipofection solution was mixed well according to the manufacturer's recommended protocol and allowed to stand at room temperature for about 15 minutes.

[3] = system: human mesenchymal stem cells; assay: as above; format: cell-based; conditions: 10 pg/cell
Description: as §1, §2, §3, §4, §5
as §1, with “1” for “0.1, 1, or 10”, “calcitriol” for “JSH-23”
as §6

[4] = GFP mRNA containing pseudouridine instead of uridine, JSH-23 1 μM

Cc1ccc(NCCCc2ccccc2)c(N)c1 [JSH-23]
increase in the expression level of IFN-α (IFN-α): reduced
number of GFP-positive cells relative to control (human myoblasts [1]): increased
yield of GFP-positive cells compared to the control (control set to 1) (human myoblasts [2]; [4]): ≥ 2 times
yield of GFP-positive cells compared to the control (control set to 1) (human myoblasts [2]; GFP mRNA containing uridine, JSH-23 0.1, 1 or 10 μM): ≥ 3 times
yield of GFP-positive cells compared to the control (control set to 1) [3, 4]: ≥ 7 times
yield of GFP-positive cells compared to the control (control set to 1) ([3]; GFP mRNA containing uridine, 4 introductions, JSH-23 0.1, 1 or 10 μM, maximal at 1 μM, control 0.1% DMSO): ≥ 7 times
